The record followed here is EP3572468B1, “CYANINE DYES AND THEIR USAGE FOR IN VIVO STAINING OF MICROORGANISMS” (PHILIPPS-UNIVERSITÄT MARBURG, priority 2018, dated 2019).

In the assay the test system is dsDNACT. Put plainly: UV-Vis absorbance titration with dsDNACT. The assay is classed as binding, calf. Particulars: addition of dsDNACT (< 2.5 eq of DNA); 12.3 µM dye in 10 mM Tris pH 7.6 and 50 mM KCI. As for the experimental part:
UV-Vis titration measurements were performed on a Jasco V-650 UV-Vis spectrophotometer equipped with a Jasco PAC-743 temperature controlled cell holder and a Julabo F250 cooling system to maintain the temperature constant at 20°C during the measurements. UV-Vis titration measurements were performed in a 500 µL quarz cuvette with a pathlength of 1 cm at 20°C. The absorbance spectra were recorded from 400 nm to 800 nm.
UV-Vis titration measurements were performed at a concentration of 12.3 µM of the dye in 10 mM Tris pH 7.6 and 50 mM KCI. Increasing aliquots of a 1.54 mM and 15.4 mM stock solutions of dsDNACT were successively added and the absorbance spectra were recorded in a range from 400-800 nm after 1 min of each addition. Three independent measurements were carried out. The presented spectra are the resulting mean of the three independent measurements.

Turning to `CC[n+]1ccc(/C=C/C=C2\Sc3ccccc3N2CCCCCCn2cc(CN)nn2)c2ccccc21.[I-]` [6-TramTO-3, 4-((1E,3Z)-3-(3-(6-(4-(aminomethyl)-1H-1,2,3-triazol-1-yl)hexyl)benzo[d]thiazol-2(3H)-ylidene)prop-1-en-1-yl)-1-ethylquinolin-1-ium iodide], the “blue shift of the absorption maximum” value is recorded as 102 nm.
